The term logP denotes the decadic logarithm of the partition coefficient of the neutral form, usually between octanol and water. The low end stands for a more hydrophilic compound, the high end for a more lipophilic compound.

The test system of series [1] is Puccinia recondita. In words: In vivo preventive test on Puccinia recondita (brown rust on wheat). As to conditions: preventive spray, 500 ppm of active ingredient, grading 12 days after contamination. The protocol: Wheat plants (“Scipion” variety), sown in starter cups on a 50/50 peat soil pozzolana substrate and grown at 22° C., are treated at the 1 leaf stage (10 cm height) by spraying with the active ingredient prepared as described above. Plants, used as controls, are treated with the mixture of acetone/tween/DMSO/water not containing the active material. After 24 hours, the plants are contaminated by spraying the leaves with an aqueous suspension of Puccinia recondita spores (100 000 spores per mL). The spores are collected from an infected plant and are suspended in water containing 2.5 mL/L of Tween 80 at 10%. The contaminated wheat plants are incubated for 24 hours at 20° C. and at 100% relative humidity, and then for 10 days at 20° C. and at 70-80% relative humidity. Grading (% of efficacy) is carried out 12 days after the contamination, in comparison with the control plants.

The subject of series [2] is Septoria tritici. Nature of the series: In vivo preventive test on Septoria tritici (wheat). As to conditions: preventive spray, 500 ppm of active ingredient, grading 24 days after contamination. The protocol: Wheat plants (“Scipion” variety), sown in starter cups on a 50/50 peat soil pozzolana substrate and grown at 22° C., are treated at the 1 leaf stage (10 cm height) by spraying with the active ingredient prepared as described above. Plants, used as controls, are treated with the mixture of acetone/tween/DMSO/water not containing the active material. After 24 hours, the plants are contaminated by spraying the leaves with an aqueous suspension of cryopreserved Septoria tritici spores (500 000 spores per mL). The contaminated wheat plants are incubated for 72 hours at 18° C. and at 100% relative humidity, and then for 21 days at 90% relative humidity. Grading (% of efficacy) is carried out 24 days after the contamination, in comparison with the control plants.

Series [3] is described as follows: log P by HPLC on reversed-phase column (C 18), EEC Directive 79/831 Annex V.A8. The class given is physicochemical. The note with it: 40° C., 0.1% aqueous formic acid and acetonitrile, linear gradient 10% to 90% acetonitrile. The protocol: In table 1, the log P values were determined in accordance with EEC Directive 79/831 Annex V.A8 by HPLC (High Performance Liquid Chromatography) on a reversed-phase column (C 18), using the method described below:
Temperature: 40° C.; Mobile phases: 0.1% aqueous formic acid and acetonitrile; linear gradient from 10% acetonitrile to 90% acetonitrile.
Calibration was carried out using unbranched alkan-2-ones (comprising 3 to 16 carbon atoms) with known log P values (determination of the log P values by the retention times using linear interpolation between two successive alkanones). lambda-max-values were determined using UV-spectra from 200 nm to 400 nm and the peak values of the chromatographic signals.

Series [4] relates to Pyrenophora teres. Nature of the series: In vivo preventive test on Pyrenophora teres (barley). The note with it: preventive spray (DMF/alkylaryl polyglycol ether), 500 ppm of active ingredient, evaluated 7-9 days after inoculation. The protocol: Solvent: 49 parts by weight of N,N-dimethylformamide Emulsifier: 1 part by weight of alkylaryl polyglycol ether To produce a suitable preparation of active compound, 1 part by weight of active compound is mixed with the stated amounts of solvent and emulsifier, and the concentrate is diluted with water to the desired concentration. To test for preventive activity, young plants are sprayed with the preparation of active compound at the stated rate of application. One day after this treatment, the plants are inoculated with an aqueous spore suspension of Pyrenophora teres. The plants remain for 48 hours in an incubation cabinet at 22° C. and a relative atmospheric humidity of 100%. Then the plants are placed in a greenhouse at a temperature of approximately 20° C. and a relative atmospheric humidity of approximately 80%.

Series [5] relates to Sphaerotheca fuliginea. Nature of the series: In vivo preventive test on Sphaerotheca fuliginea (powdery mildew on cucurbits). The note with it: gherkin plants, preventive spray, 500 ppm of active ingredient, grading 12 days after contamination. The protocol:
Gherkin plants (“Vert petit de Paris” variety), sown in starter cups on a 50/50 peat soil-pozzolana substrate and grown at 24° C., are treated at the Z11 cotyledon stage by spraying with the active ingredient prepared as described above. Plants, used as controls, are treated with the mixture of acetone/tween/DMSO/water not containing the active material. After 24 hours, the plants are contaminated by spraying the cotyledons with an aqueous suspension of Sphaerotheca fuliginea spores (100 000 spores per mL). The spores are collected from infected plants. The contaminated gherkin plants are incubated at about 20° C. and at 70-80% relative humidity. Grading (% of efficacy) is carried out 12 days after the contamination, in comparison with the control plants.

For series [6], the system named is Alternaria solani. In words: In vivo preventive test on Alternaria solani (tomato). The note with it: preventive spray, 500 ppm of active ingredient, evaluated 7 days after inoculation. The protocol:
Solvent: 49 parts by weight of N,N-dimethylformamide Emulsifier: 1 part by weight of alkylaryl polyglycol ether To produce a suitable preparation of active compound, 1 part by weight of active compound is mixed with the stated amounts of solvent and emulsifier, and the concentrate is diluted with water to the desired concentration. To test for preventive activity, young plants are sprayed with the preparation of active compound at the stated rate of application. One day after this treatment, the plants are inoculated with an aqueous spore suspension of Alternaria solani. The plants remain for one day in an incubation cabinet at approximately 22° C. and a relative atmospheric humidity of 100%. Then the plants are placed in an incubation cabinet at approximately 20° C. and a relative atmospheric humidity of 96%.

Molecules are shown by their SMILES.

Regarding `C[Si](C)(CNC(=O)c1cccnc1Cl)c1ccccc1` [Example 3], the Efficacy in series [1] is 75%; in series [2] it was 90%. Also, the logP in series [3] is 2.61.

On to `C[Si](C)(CNC(=O)c1nccnc1C(F)(F)F)c1ccccc1` [Example 7], for which the Efficacy in series [2] turned out to be 93%; in series [4], 100%. Besides, the logP in series [3] came to 3.15.

With `C[Si](C)(CN(C(=O)c1nccnc1C(F)(F)F)C1CC1)c1ccccc1` [Example 9], the figures for the Efficacy in series [2] and in series [4] were 86% and 100%, respectively. The same compound gave a logP in series [3] of 4.13.

On to `Cc1ccccc1[Si](C)(C)CN(C(=O)c1cccnc1Cl)C1CC1` [Example 13], for which the Efficacy in series [2] amounted to 97%; in series [4] it was 100%. In series [3], this compound displayed a logP of 3.80.

Turning to `C[Si](C)(CN(C(=O)c1cccnc1C(F)(F)F)C1CC1)c1ccccc1F` [Example 15], the Efficacy in series [1] is 75%; in series [2], 71%; in series [5], 72%; in series [4], 100%. In series [3], the logP is reported as 3.96.

With `C[Si](C)(CN(C(=O)c1cccnc1Cl)C1CC1)c1ccccc1F` [Example 17], the values for the Efficacy in series [2] and in series [4] were 79% and 86%, respectively. The same compound came in with a logP in series [3] of 3.58.

As to `CCc1ccccc1[Si](C)(C)CN(C(=O)c1nccnc1C(F)(F)F)C1CC1` [Example 21], the Efficacy in series [1] was 75%; in series [2], 86%; in series [5] it was 98%; in series [4] it was 100%. This compound also displayed a logP in series [3] of 4.77.

`C[Si](C)(CN(C(=O)c1cccnc1C(F)F)C1CC1)c1ccccc1Cl` [Example 28] gave a logP in series [3] of 3.83. In addition, the Efficacy in series [4] is 100%; in series [6], 89%.

As for `C[Si](C)(CNC(=O)c1cccnc1C(F)F)c1cccc(Cl)c1` [Example 29], the logP in series [3] turned out to be 3.15. For the same compound, the Efficacy in series [4] and in series [6] was 95% in each case.

`C[Si](C)(CN(C(=O)c1cccnc1C(F)(F)F)C1CC1)c1cccc(Cl)c1` [Example 33]: the logP in series [3] is 4.34. In series [4], this compound had an Efficacy of 80%.

In series [2], `CC[Si](C)(CN(C(=O)c1cccnc1Cl)C1CC1)c1ccccc1Cl` (stereo not drawn) [Example 38] gave an Efficacy of 80%. This compound displayed a logP in series [3] of 4.34.

On to `C[Si](C)(CNC(=O)c1cccnc1C(F)(F)F)c1ccccc1Cl` [Example 39], for which, in series [2], the Efficacy turned out to be 96%. The logP in series [3] came out at 3.25.

`C[Si](C)(CNC(=O)c1cccnc1Cl)c1ccccc1Cl` [Example 40] yielded an Efficacy in series [2] of 96%. In series [3], this compound returned a logP of 2.94.

As for `C[Si](C)(CNC(=O)c1nccnc1C(F)(F)F)c1ccccc1Cl` [Example 41], the Efficacy in series [2] is 90%; in series [5], 78%. This compound displayed a logP in series [3] of 3.50.

With `C[Si](C)(CN(C(=O)c1cccnc1C(F)F)C1CC1)c1cc(F)ccc1Cl` [Example 51], the Efficacy was determined as 88% in series [1], 100% in series [2] and 97% in series [4]. Besides, the logP in series [3] worked out at 3.89.

For the compound `C[Si](C)(CN(C(=O)c1nccnc1C(F)(F)F)C1CC1)c1ccccc1C(F)(F)F` [Example 54], the Efficacy was determined as 93% in series [2], 83% in series [5] and 100% in series [4]. In series [3], this compound displayed a logP of 4.61.

On to `C[Si](C)(CN(C(=O)c1cccnc1C(F)(F)F)C1CC1)c1ccccc1C(F)(F)F` [Example 55], for which the values for the Efficacy in series [2] and in series [4] were 64% and 97%, respectively. In series [3], this compound returned a logP of 4.39.

`C[Si](C)(CN(C(=O)c1nccnc1C(F)(F)F)C1CC1)c1ccc(Cl)cc1Cl` [Example 58] yielded a logP in series [3] of 5.25. For the same compound, in series [4], the Efficacy was 100%.

`C[Si](C)(CN(C(=O)c1cccnc1C(F)F)C1CC1)c1cc(Cl)cc(Cl)c1` [Example 68]: the logP in series [3] amounted to 4.49. In series [4], this compound returned an Efficacy of 80%.

`C[Si](C)(CN(C(=O)c1cccnc1C(F)(F)F)C1CC1)c1ccc2ccccc2c1` [Example 78] showed a logP in series [3] of 4.56. The compound further returned an Efficacy in series [4] of 95%.

In turn, `C[Si](C)(CN(C(=O)c1nccnc1C(F)(F)F)C1CC1)c1cccs1` [Example 82] showed a logP in series [3] of 4.01. In series [4], the Efficacy turned out to be 95%.

In series [3], `C[Si](C)(CN(C(=O)c1cccnc1C(F)F)C1CC1)c1ccsc1` [Example 87] gave a logP of 3.27. Moreover, the figures for the Efficacy in series [4] and in series [6] were 100% and 88%, respectively.

The compound `C[Si](C)(CN(C(=O)c1cccnc1C(F)(F)F)C1CC1)c1ccsc1` [Example 91] yielded a logP in series [3] of 3.72. Also, the Efficacy in series [4] was 70%; in series [6] it was 78%.

`C[Si](C)(Cc1cccc(Cl)c1)CN(C(=O)c1cccnc1C(F)F)C1CC1` [Example 104] showed a logP in series [3] of 4.16. In addition, the figures for the Efficacy in series [4] and in series [6] were 80% and 90%, respectively.

Take `C[Si](C)(Cc1ccc(Cl)cc1Cl)CN(C(=O)c1cccnc1C(F)F)C1CC1` [Example 110]: in series [3], the logP is given as 4.74. Moreover, the values for the Efficacy in series [4] and in series [6] were 95% and 70%, respectively.

Turning to `C[Si](C)(Cc1ccc(Cl)cc1Cl)CN(C(=O)c1nccnc1C(F)(F)F)C1CC1` [Example 111], in series [3], the logP is recorded as 5.45. Also, in series [4], the Efficacy is given as 95%.

Consider `C[Si](C)(Cc1cc(Cl)cc(Cl)c1)CN(C(=O)c1ccccc1I)C1CC1` [Example 119], for which the logP in series [3] amounted to 6.14.

For the compound `C[Si](C)(Cc1cc(Cl)cc(Cl)c1)CN(C(=O)c1ccccc1C(F)(F)F)C1CC1` [Example 120], the logP in series [3] came to 5.94.

Consider `C[Si](C)(Cc1cc(Cl)cc(Cl)c1)CN(C(=O)c1cccnc1C(F)(F)F)C1CC1` [Example 121], for which the logP in series [3] is reported as 5.22.

As to `CN(C[Si](C)(C)c1cc(Cl)cc(Cl)c1)C(=O)c1cccnc1C(F)F` [Example 122], in series [3], the logP came to 3.92.

Take `C[Si](C)(CNC(=S)c1cccnc1C(F)F)c1ccccc1Cl` [Example 123]: the logP in series [3] worked out at 3.83.

Compound `C[Si](C)(CN(C(=S)c1cccnc1C(F)F)C1CC1)c1ccc(Cl)cc1Cl` [Example 124] had a logP in series [3] of 5.13.

Consider `C[Si](C)(CN(C(=S)c1cccnc1C(F)F)C1CC1)c1ccc2ccccc2c1` [Example 125], for which the logP in series [3] is reported as 4.72.

For the compound `C[Si](C)(CN(C(=S)c1nccnc1C(F)(F)F)C1CC1)c1ccc2ccccc2c1` [Example 126], the logP in series [3] was 5.35.

Take `C[Si](C)(Cc1ccccc1Cl)CN(C(=S)c1cccnc1C(F)F)C1CC1` [Example 127]: the logP in series [3] is listed as 4.76.
